From patent US10183030B2, “17α,21-diesters of cortexolone for use in the treatment of tumors” (COSMO TECHNOLOGIES LTD., priority 2014, dated 2019) come the findings set out here.

The structures appear in SMILES notation. Like-named read-outs stand apart in the source and are kept apart here.

Series [1] has as its system Panc1 (AR+) pancreatic cancer cells. Kind of series: ATP-dependent proliferation/viability assay, Panc1. In kind it is cell-based. Particulars: Homo sapiens, read-out: IC50. On the procedure: The experimental method consisted of: • 1. […] After 24 hours, 10 nM DHT (dihydrotestosterone) with or without anti-androgen compounds, or DMSO vehicle (negative control) was added to the cultures. • 3.
Each compounds was titrated from 3 uM to 200 uM.

The test system of series [2] is stimulated PBMC (actively dividing cells). In words: IC50 on stimulated PBMC (intrinsic toxicity). The class given is cell-based. Particulars: Homo sapiens, stimulated PBMC.
Procedure: (§2) The IC50 in PBMC were tested in 2 different activation status: • stimulated—actively dividing cells • resting—quiescent, non-dividing cells
(§3) IC50 of the compounds was determined on fresh cells isolated from human blood (PBMC).
In series [3] the test system is resting PBMC (quiescent, non-dividing cells). Kind of series: IC50 on resting PBMC (intrinsic toxicity). In kind it is cell-based. Particulars: Homo sapiens, resting PBMC.
Procedure: as §2, §3
The subject of a further series is LNCaP xenograft tumor. In words: LNCaP human prostate cancer xenograft in nude mice, oral dosing. The class given is in vivo, mouse. On the procedure:
3×10^6 LNCaP cells suspended in matrigel were subcutaneously injected (on the right flank) into 6 week old male athymic nude mice. Tumors were measured as described above. Treatment with CB-03-10 and controls compounds was initiated after the tumor had reached 50 mm^3. […] Oral dosing was daily (100 mg/Kg in 200 μL/mouse) for 28 consecutive days. Results were plotted as average change in tumor volume relative to the start of treatment.
Background: Xenograft models place foreign cells or tissue in a host animal.

The target in the next series is T1, Glucocorticoid Receptor (Homo sapiens, UniProt P04150).
T1 construct: endogenous in cells; host or cells: human kidney epithelial cells
T1 sequence (P04150 1-777): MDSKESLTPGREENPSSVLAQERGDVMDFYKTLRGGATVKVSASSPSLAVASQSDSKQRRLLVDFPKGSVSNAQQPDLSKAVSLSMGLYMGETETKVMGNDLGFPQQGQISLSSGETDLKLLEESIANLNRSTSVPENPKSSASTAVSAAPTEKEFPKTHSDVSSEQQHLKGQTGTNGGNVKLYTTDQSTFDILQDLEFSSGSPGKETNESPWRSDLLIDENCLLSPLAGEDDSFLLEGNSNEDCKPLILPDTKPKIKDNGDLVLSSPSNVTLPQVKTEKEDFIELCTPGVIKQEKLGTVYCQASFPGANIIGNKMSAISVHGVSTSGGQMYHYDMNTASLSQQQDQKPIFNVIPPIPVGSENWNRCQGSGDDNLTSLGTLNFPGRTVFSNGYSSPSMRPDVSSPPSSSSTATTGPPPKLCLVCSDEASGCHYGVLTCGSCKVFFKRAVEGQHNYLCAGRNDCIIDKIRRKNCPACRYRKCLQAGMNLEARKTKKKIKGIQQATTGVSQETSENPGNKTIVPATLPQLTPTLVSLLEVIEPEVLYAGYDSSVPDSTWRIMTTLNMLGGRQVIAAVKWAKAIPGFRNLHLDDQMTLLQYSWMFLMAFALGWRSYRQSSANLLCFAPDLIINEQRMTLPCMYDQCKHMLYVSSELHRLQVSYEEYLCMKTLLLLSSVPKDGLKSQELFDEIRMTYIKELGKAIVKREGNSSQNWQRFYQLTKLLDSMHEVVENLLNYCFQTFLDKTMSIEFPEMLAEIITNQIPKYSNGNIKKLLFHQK
In words: GR reporter assay, antagonist mode. The class given is cell-based. Particulars: FIG. 7. On the procedure:
The androgen and glucocorticoid hormones elicit divergent and often opposing effects in cells, tissues, and animals. […] CB-03-10 GR antagonist and agonist activities were tested in an in vitro assay. Briefly, human kidney epithelial cells were transfected with DNA construct containing GR binding sites linked to luminescent based reporter molecule. After 24 hours, cells were treated under antagonist or agonist modes. After an additional 24 hours, luminescence which is proportional to GR agonist transcriptional activity was quantitated.
Antagonist Assay was based on inhibition of luminescence induced by Dexamethasone (Dex).
The antagonist activity of CB-03-10 was compared to a known GR antagonist, Mifepristone (also called RU486) as shown in FIG. 7.
A general note: A reporter such as luciferase makes a cellular process visible.

A short description of series [4]: In vitro metabolism in human plasma. The class given is in vitro ADME. Particulars: 37° C.; FIG. 13. On the procedure:
(§1) To obtain some insights on the metabolism of CB-03-10 in human and rat plasma, a specific assay was designed. Briefly the compound was incubated at different time in human and rat plasma at 37° C. After incubation the samples were tested for presence of the intact compound by liquid chromatography.

Series [5] in a line: In vitro metabolism in rat plasma. In kind it is in vitro ADME. Particulars: 37° C.; FIG. 13. On the procedure: as §1
A short description of series [6]: In vivo pharmacokinetics in mouse plasma. Particulars: mice; iv 20 mg/kg, SC 40 mg/kg, PO 40 mg/kg. On the procedure:
The pharmacokinetic of CB-03-10 was evaluated in plasma of mice after intravenous (IV), subcutaneous (SC) and oral administration (PO).
Mice (3 per group) were administered with the following doses, blood was collected at the indicated times. Plasma samples were analyzed by HPLC-MS/MS.

As usually defined, the IC50 is the point on the concentration scale where inhibition reaches its midpoint. In the case of `CCCCC(=O)O[C@]1(C(=O)COC(=O)CC)CC[C@H]2[C@@H]3CCC4=CC(=O)CC[C@]4(C)[C@H]3CC[C@@]21C` [CB-03-10, cortexolone 17α-valerate-21-propionate], the IC50 in series [1] (PANC-1, 72 h, Panc1, 10 nM DHT, 3 days, Examples 3-4, Experiment 1) was found to be 66 µM; in series [1] (PANC-1, Panc1, Example 7, Experiment 1), 68 µM; in series [2] (Example 7, Experiment 1, read-out: IC50 (microM) on Stimulated PBMC) it was 106 µM; in series [2] (Example 7, Experiment 2, read-out: IC50 (microM) on Stimulated PBMC), 94 µM; in series [3] (Example 7, Experiment 1, read-out: IC50 (microM) on Resting PBMC), 114 µM; in series [3] (Example 7, Experiment 2, read-out: IC50 (microM) on Resting PBMC), 120 µM. Also, the “average tumor volume smaller than in the vehicle group” value in the series on LNCaP xenograft tumor (6 weeks after treatment was stopped, oral 100 mg/Kg) was determined as 3.6 times. In the series on LNCaP xenograft tumor (FIG. 16, oral gavage), the “statistical significance of tumor growth versus vehicle” value was “statistically significantly different from day 7 up to day 60”. Moreover, on Glucocorticoid Receptor, the “GR antagonist potency relative to RU486” value came out at 10 times less. Further, at Glucocorticoid Receptor (inhibition of luminescence induced by Dexamethasone), the GR antagonist activity result was “potent antagonist”. In series [4], the “degradation in human plasma” value is “rapidly degraded to CB-03-05”. In series [5], the “degradation in rat plasma” value is given as “degraded more rapidly in rat compared to human plasma”. Further, in series [6], the “plasma level of parent compound” value is reported as “undetectable in plasma even after 1 hour regardless of the administration route”.
